Assay results: patent US20260250290A1 (BRISTOL-MYERS SQUIBB COMPANY, priority 2023, published 2026)

The compounds below were run against T1, full length SGK1 (Homo sapiens, UniProt O00141) (assay: SGK1 inhibition Assay A (Caliper LabChip electrophoretic separation of fluorescent peptide substrate and phosphorylated product)). Conditions: Assay A; 20 μM ATP, 40 min incubation; read-out: SGK1 IC50.
T1 construct: 125 μM full length SGK1 (Life Technologies Part #PR7358A); purchased Life Technologies PR7358A
T1 sequence (O00141 1-431): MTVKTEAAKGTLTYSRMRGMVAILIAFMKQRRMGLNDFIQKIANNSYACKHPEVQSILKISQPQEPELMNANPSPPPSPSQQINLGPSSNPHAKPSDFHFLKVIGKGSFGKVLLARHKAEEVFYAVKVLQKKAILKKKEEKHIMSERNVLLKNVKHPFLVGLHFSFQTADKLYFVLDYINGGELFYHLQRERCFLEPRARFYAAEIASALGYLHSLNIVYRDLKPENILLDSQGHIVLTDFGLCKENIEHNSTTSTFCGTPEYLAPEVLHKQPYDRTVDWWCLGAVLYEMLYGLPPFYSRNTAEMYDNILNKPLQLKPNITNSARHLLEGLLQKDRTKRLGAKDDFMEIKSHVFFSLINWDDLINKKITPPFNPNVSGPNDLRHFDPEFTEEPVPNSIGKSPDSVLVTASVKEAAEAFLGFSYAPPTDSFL
Format: biochemical

Point of comparison: `CC(=O)N1CC=C(c2cc(N3CCC[C@@H](NC(=O)c4sc(C(F)F)cc4C4=CCN(C)CC4)C3)c3c(N)ncnn23)C1` [Example 322, (R)—N-(1-(7-(1-acetyl-2,5-dihydro-1H-pyrrol-3-yl)-4-aminopyrrolo[2,1-f][1,2,4]triazin-5-yl)piperidin-3-yl)-5-(difluoromethyl)-3-(1-methyl-1,2,3,6-tetrahydropyridin-4-yl)thiophene-2-carboxamide], IC50 96 nM. Against it:
- N#Cc1ccc(-c2cc(N3CCC[C@@H](NC(=O)c4sc(C(F)F)cc4N4CCOCC4)C3)c3c(N)ncnn23)cn1 [Example 318, (R)—N-(1-(4-amino-7-(6-cyanopyridin-3-yl)pyrrolo[2,1-f][1,2,4]triazin-5-yl)piperidin-3-yl)-5-(difluoromethyl)-3-morpholinothiophene-2-carboxamide] — 6.4-fold lower, 15 nM
- CC(=O)N1CC=C(c2cc(N3CCC[C@@H](NC(=O)c4sc(C(F)F)cc4N4CCOCC4)C3)c3c(N)ncnn23)C1 [Example 319, (R)-N-(1-(7-(1-acetyl-2,5-dihydro-1H-pyrrol-3-yl)-4-aminopyrrolo[2,1-f][1,2,4]triazin-5-yl)piperidin-3-yl)-5-(difluoromethyl)-3-morpholinothiophene-2-carboxamide] — 8.7-fold lower, 11 nM
- COC(=O)N1CC=C(c2cc(N3CCC[C@@H](NC(=O)c4sc(C(F)F)cc4N4CCOCC4)C3)c3c(N)ncnn23)C1 [Example 321, Methyl (R)-3-(4-amino-5-(3-(5-(difluoromethyl)-3-morpholinothiophene-2-carboxamido)piperidin-1-yl)pyrrolo[2,1-f][1,2,4]triazin-7-yl)-2,5-dihydro-1H-pyrrole-1-carboxylate] — 7.4-fold lower, 13 nM
- CN1CC=C(c2cc(C(F)F)sc2C(=O)N[C@@H]2CCCN(c3cc(-c4ccc(C(N)=O)c(F)c4)n4ncnc(N)c34)C2)CC1 [Example 323, (R)—N-(1-(4-amino-7-(4-carbamoyl-3-fluorophenyl)pyrrolo[2,1-f][1,2,4]triazin-5-yl)piperidin-3-yl)-5-(difluoromethyl)-3-(1-yl)-5-(difluoromethyl)-3-(1-methyl-1,2,3,6-tetrahydropyridin-4-yl)thiophene-2-carboxamide] — 5.1-fold lower, 19 nM
- COC(=O)N1CC=C(c2cc(N3CCC[C@@H](NC(=O)c4sc(C(F)F)cc4OCCN)C3)c3c(N)ncnn23)C1 [Example 324, methyl (R)-3-(4-amino-5-(3-(3-(2-aminoethoxy)-5-(difluoromethyl)thiophene-2-carboxamido)piperidin-1-yl)pyrrolo[2,1-f][1,2,4]triazin-7-yl)-2,5-dihydro-1H-pyrrole-1-carboxylate] — 24-fold lower, 4 nM
- NCCOc1cc(C(F)F)sc1C(=O)N[C@@H]1CCCN(c2cc(-c3cncnc3)n3ncnc(N)c23)C1 [Example 325, (R)-N-(1-(4-amino-7-(pyrimidin-5-yl)pyrrolo[2,1-f][1,2,4]triazin-5-yl)piperidin-3-yl)-3-(2-aminoethoxy)-5-(difluoromethyl)thiophene-2-carboxamide] — 6.4-fold lower, 15 nM
- NCCOc1cc(C(F)F)sc1C(=O)N[C@@H]1CCCN(c2cc(-c3ccnc(C(F)F)c3)n3ncnc(N)c23)C1 [Example 326, (R)-N-(1-(4-amino-7-(2-(difluoromethyl)pyridin-4-yl)pyrrolo[2,1-f][1,2,4]triazin-5-yl)piperidin-3-yl)-3-(2-aminoethoxy)-5-(difluoromethyl)thiophene-2-carboxamide] — 24-fold lower, 4 nM
- NCCOc1cc(Cl)sc1C(=O)N[C@@H]1CCCN(c2cc(-c3cncnc3)n3ncnc(N)c23)C1 [Example 327, (R)—N-(1-(4-amino-7-(pyrimidin-5-yl)pyrrolo[2,1-f][1,2,4]triazin-5-yl)piperidin-3-yl)-3-(2-aminoethoxy)-5-chlorothiophene-2-carboxamide] — 11-fold lower, 9 nM
- CC(=O)NCCOc1cc(Cl)sc1C(=O)N[C@@H]1CCCN(c2cc(C3=CCN(C(C)=O)C3)n3ncnc(N)c23)C1 [Example 328, (R)-3-(2-acetamidoethoxy)-N-(1-(7-(1-acetyl-2,5-dihydro-1H-pyrrol-3-yl)-4-aminopyrrolo[2,1-f][1,2,4]triazin-5-yl)piperidin-3-yl)-5-chlorothiophene-2-carboxamide] — 32-fold lower, 3 nM
- CC(=O)N1CC=C(c2cc(N3CCC[C@@H](NC(=O)c4sc(Cl)cc4OCCNC(=O)C(F)F)C3)c3c(N)ncnn23)C1 [Example 329, (R)—N-(1-(7-(1-acetyl-2,5-dihydro-1H-pyrrol-3-yl)-4-aminopyrrolo[2,1-f][1,2,4]triazin-5-yl)piperidin-3-yl)-5-chloro-3-(2-(2,2-difluoroacetamido)ethoxy)thiophene-2-carboxamide] — 32-fold lower, 3 nM
- CC(=O)N1CC=C(c2cc(N3CCC[C@@H](NC(=O)c4sc(Cl)cc4OC[C@H](C)N)C3)c3c(N)ncnn23)C1 [Example 330, N—((R)-1-(7-(1-acetyl-2,5-dihydro-1H-pyrrol-3-yl)-4-aminopyrrolo[2,1-f][1,2,4]triazin-5-yl)piperidin-3-yl)-3-((S)-2-aminopropoxy)-5-chlorothiophene-2-carboxamide] — 32-fold lower, 3 nM
- CC(=O)N1CC=C(c2cc(N3CCC[C@@H](NC(=O)c4sc(Cl)cc4OCC4(N)CC4)C3)c3c(N)ncnn23)C1 [Example 331, (R)—N-(1-(7-(1-acetyl-2,5-dihydro-1H-pyrrol-3-yl)-4-aminopyrrolo[2,1-f][1,2,4]triazin-5-yl)piperidin-3-yl)-3-((1-aminocyclopropyl)methoxy)-5-chlorothiophene-2-carboxamide] — 4.6-fold lower, 21 nM
- CC(=O)N(C)CCOc1cc(Cl)sc1C(=O)N[C@@H]1CCCN(c2cc(C3=CCN(C(C)=O)C3)n3ncnc(N)c23)C1 [Example 332, (R)—N-(1-(7-(1-acetyl-2,5-dihydro-1H-pyrrol-3-yl)-4-aminopyrrolo[2,1-f][1,2,4]triazin-5-yl)piperidin-3-yl)-5-chloro-3-(2-(N-methylacetamido)ethoxy)thiophene-2-carboxamide] — 5.3-fold lower, 18 nM
- CNCCOc1cc(Cl)sc1C(=O)N[C@@H]1CCCN(c2cc(C3=CCN(C(C)=O)C3)n3ncnc(N)c23)C1 [Example 332D, (R)—N-(1-(7-(1-acetyl-2,5-dihydro-1H-pyrrol-3-yl)-4-aminopyrrolo[2,1-f][1,2,4]triazin-5-yl)piperidin-3-yl)-5-chloro-3-(2-(methylamino)ethoxy)thiophene-2-carboxamide] — 9.6-fold lower, 10 nM
- COC(=O)N(C)CCOc1cc(Cl)sc1C(=O)N[C@@H]1CCCN(c2cc(C3=CCN(C(C)=O)C3)n3ncnc(N)c23)C1 [Example 333] — 96-fold lower, 1 nM
- COC(=O)N1CC=C(c2cc(N3CCC[C@@H](NC(=O)c4sc(C(F)F)cc4OCCN4CCN(C)CC4)C3)c3c(N)ncnn23)C1 [Example 334, Methyl (R)-3-(4-amino-5-(3-(5-(difluoromethyl)-3-(2-(4-methylpiperazin-1-yl)ethoxy)thiophene-2-carboxamido)piperidin-1-yl)pyrrolo[2,1-f][1,2,4]triazin-7-yl)-2,5-dihydro-1H-pyrrole-1-carboxylate] — 11-fold lower, 9 nM
- CN1CCN(CCOc2cc(C(F)F)sc2C(=O)N[C@@H]2CCCN(c3cc(-c4ccnc(C(F)F)c4)n4ncnc(N)c34)C2)CC1 [Example 335, (R)—N-(1-(4-amino-7-(2-(difluoromethyl)pyridin-4-yl)pyrrolo[2,1-f][1,2,4]triazin-5-yl)piperidin-3-yl)-5-(difluoromethyl)-3-(2-(4-methylpiperazin-1-yl)ethoxy)thiophene-2-carboxamide] — 24-fold lower, 4 nM
- COC(=O)N1CC=C(c2cc(N3CCC[C@@H](NC(=O)c4sc(C(F)F)cc4OCCN4CCOCC4)C3)c3c(N)ncnn23)C1 [Example 336, methyl (R)-3-(4-amino-5-(3-(5-(difluoromethyl)-3-(2-morpholinoethoxy)thiophene-2-carboxamido)piperidin-1-yl)pyrrolo[2,1-f][1,2,4]triazin-7-yl)-2,5-dihydro-1H-pyrrole-1-carboxylate] — 3.4-fold lower, 28 nM
- Nc1ncnn2c(-c3ccnc(C(F)F)c3)cc(N3CCC[C@@H](NC(=O)c4sc(C(F)F)cc4OCCN4CCOCC4)C3)c12 [Example 337, (R)—N-(1-(4-amino-7-(2-(difluoromethyl)pyridin-4-yl)pyrrolo[2,1-f][1,2,4]triazin-5-yl)piperidin-3-yl)-5-(difluoromethyl)-3-(2-morpholinoethoxy)thiophene-2-carboxamide] — 6.9-fold lower, 14 nM
- CN(C)C(=O)COc1cc(Cl)sc1C(=O)N[C@@H]1CCCN(c2cc(-c3ccnc(C(F)F)c3)n3ncnc(N)c23)C1 [Example 339, (R)—N-(1-(4-amino-7-(2-(difluoromethyl)pyridin-4-yl)pyrrolo[2,1-f][1,2,4]triazin-5-yl)piperidin-3-yl)-5-chloro-3-(2-(dimethylamino)-2-oxoethoxy)thiophene-2-carboxamide] — 11-fold lower, 9 nM
- CN(C)CCOc1cc(Cl)sc1C(=O)N[C@@H]1CCCN(c2cc(-c3ccnc(C(F)F)c3)n3ncnc(N)c23)C1 [Example 340, (R)—N-(1-(4-amino-7-(2-(difluoromethyl)pyridin-4-yl)pyrrolo[2,1-f][1,2,4]triazin-5-yl)piperidin-3-yl)-5-chloro-3-(2-(dimethylamino)ethoxy)thiophene-2-carboxamide] — 32-fold lower, 3 nM
- Nc1ncnn2c(-c3ccnc(C(F)F)c3)cc(N3CCC[C@@H](NC(=O)c4sc(Cl)cc4OCCN4CCOCC4)C3)c12 [Example 341, (R)—N-(1-(4-amino-7-(2-(difluoromethyl)pyridin-4-yl)pyrrolo[2,1-f][1,2,4]triazin-5-yl)piperidin-3-yl)-5-chloro-3-(2-morpholinoethoxy)thiophene-2-carboxamide] — 48-fold lower, 2 nM
